What was measured:
Type in all cases: in vivo
[1] = tested on: large crabgrass (Digitaria sanguinalis, DIGSA); test: Post-emerge test, greenhouse herbicide activity screening; conditions: post-emerge, 14 days after application, rating scale 0-100
In short: (§1)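 Visual ratings on a 0-100 scale (0 no damage, 100 all plants dead) were taken at 14 days after treatment. Rates of 15-1000 g ai/ha in acetone, 187 l/ha, were sprayed onto soil one day after planting (pre-emerge) or onto 2-3 leaf plants with 0.25% v/v surfactant (post-emerge).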

[2] = tested on: ivyleaf morningglory (Ipomoea hederacea, IPOHE); test: as above; conditions: post-emerge, 14 days after application, rating scale 0-100
In short: as §1

[3] = tested on: common ragweed (Ambrosia artemisizfolia L., AMBEL); test: as above; conditions: post-emerge, 14 days after application, rating scale 0-100
In short: as §1

[4] = tested on: sicklepod (Cassia obtusifolia, CASOB); test: as above; conditions: post-emerge, 14 days after application, rating scale 0-100
In short: as §1

[5] = tested on: redroot pigweed (Amaranthus retroflexus, AMARE); test: as above; conditions: post-emerge, 14 days after application, rating scale 0-100
In short: as §1

[6] = tested on: green foxtail (Setaria viridis, SETVI); test: as above; conditions: post-emerge, 14 days after application, rating scale 0-100
In short: as §1

[7] = tested on: johnsongrass (Sorghum halepense, SORHA); test: as above; conditions: post-emerge, 14 days after application, rating scale 0-100
In short: as §1

[8] = tested on: velvetleaf (Abutilon theophrasti, ABUTH); test: as above; conditions: post-emerge, 14 days after application, rating scale 0-100
In short: as §1

[9] = tested on: barnyardgrass (Echinochloa crus-galli, ECHCG); test: as above; conditions: post-emerge, 14 days after application, rating scale 0-100
In short: as §1

[10] = tested on: lambsquarters (Chenopodium album, CHEAL); test: as above; conditions: post-emerge, 14 days after application, rating scale 0-100
In short: as §1

[11] = tested on: field corn (Zea mays L., var. Dekalb 535, CORN); test: Post-emerge test, crop safety; conditions: post-emerge, 14 days after application, rating scale 0-100
In short: (§2)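 Applied at 15–1000 g ai/ha from acetone in 187 l/ha spray volume. Post-emergence applications included 0.25% v/v non-ionic surfactant and reached plants sown 8–21 days before. Pre-emergence applications were incorporated by surface watering. Efficacy or crop damage was rated on a 0–100 scale after 14 days.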

[12] = tested on: upland rice (Oryza sp., var. Tebonnet, RICE); test: Post-emerge test, crop safety; conditions: post-emerge, 14 days after application, rating scale 0-100
In short: as §2

[13] = tested on: redroot pigweed (Amaranthus retroflexus, AMARE); test: Pre-emerge test, greenhouse herbicide activity screening; conditions: rated 14 days after application, 0 = no damage, 100 = complete death
In short: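 Sandy loam pots; pre-emerge: sown 1 d pre-spray, surface-watered after, then bottom-watered. Post-emerge: sown 8–21 d before, 2–3 leaf stage, + 0.25% v/v NIS, bottom-watered. Acetone, 187 l/ha track spray, 15–1000 g ai/ha. 0–100 injury score, day 14.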

[14] = tested on: large crabgrass (Digitaria sanguinalis, DIGSA); test: as above; conditions: rated 14 days after application, 0 = no damage, 100 = complete death
In short: as §2

[15] = tested on: ivyleaf morningglory (Ipomoea hederacea, IPOHE); test: as above; conditions: rated 14 days after application, 0 = no damage, 100 = complete death
In short: as §2

[16] = tested on: common ragweed (Ambrosia artemisizfolia L., AMBEL); test: as above; conditions: rated 14 days after application, 0 = no damage, 100 = complete death
In short: as §2

[17] = tested on: sicklepod (Cassia obtusifolia, CASOB); test: as above; conditions: rated 14 days after application, 0 = no damage, 100 = complete death
In short: as §2

[18] = tested on: green foxtail (Setaria viridis, SETVI); test: as above; conditions: rated 14 days after application, 0 = no damage, 100 = complete death
In short: as §2

[19] = tested on: johnsongrass (Sorghum halepense, SORHA); test: as above; conditions: rated 14 days after application, 0 = no damage, 100 = complete death
In short: as §2

[20] = tested on: velvetleaf (Abutilon theophrasti, ABUTH); test: as above; conditions: rated 14 days after application, 0 = no damage, 100 = complete death
In short: as §2

[21] = tested on: barnyardgrass (Echinochloa crus-galli, ECHCG); test: as above; conditions: rated 14 days after application, 0 = no damage, 100 = complete death
In short: as §2

[22] = tested on: lambsquarters (Chenopodium album, CHEAL); test: as above; conditions: rated 14 days after application, 0 = no damage, 100 = complete death
In short: as §2

[23] = tested on: field corn (Zea mays L., var. Dekalb 535, CORN); test: Pre-emerge test, crop safety; conditions: rated 14 days after application, 0 = no damage, 100 = complete death
In short: as §2

[24] = tested on: upland rice (Oryza sp., var. Tebonnet, RICE); test: Pre-emerge test, crop safety; conditions: rated 14 days after application, 0 = no damage, 100 = complete death
In short: as §2

COc1c(Cl)cc(F)c(-n2c(=O)cc(C(F)(F)F)n(C)c2=O)c1NC(=O)c1ccc(Br)cc1 [2-61]
phytotoxicity rating DIGSA ([1]; 63 g ai/ha): 20 | phytotoxicity rating DIGSA ([1]; 250 g ai/ha): 50 | phytotoxicity rating IPOHE ([2]; 63 g ai/ha): 100 | phytotoxicity rating IPOHE ([2]; 250 g ai/ha): 100 | phytotoxicity rating AMBEL ([3]; 63 g ai/ha): 100 | phytotoxicity rating AMBEL ([3]; 250 g ai/ha): 95 | phytotoxicity rating CASOB ([4]; 63 g ai/ha): 100 | phytotoxicity rating CASOB ([4]; 250 g ai/ha): 100 | phytotoxicity rating AMARE ([5]; 63 g ai/ha): 100 | phytotoxicity rating AMARE ([5]; 250 g ai/ha): 100 | phytotoxicity rating SETVI ([6]; 63 g ai/ha): 60 | phytotoxicity rating SETVI ([6]; 250 g ai/ha): 90 | phytotoxicity rating SORHA ([7]; 63 g ai/ha): 20 | phytotoxicity rating SORHA ([7]; 250 g ai/ha): 70 | phytotoxicity rating ABUTH ([8]; 63 g ai/ha): 100 | phytotoxicity rating ABUTH ([8]; 250 g ai/ha): 100 | phytotoxicity rating ECHCG ([9]; 63 g ai/ha): 40 | phytotoxicity rating ECHCG ([9]; 250 g ai/ha): 70 | phytotoxicity rating CHEAL ([10]; 63 g ai/ha): 100 | phytotoxicity rating CHEAL ([10]; 250 g ai/ha): 100 | phytotoxicity rating CORN ([11]; 63 g ai/ha): 35 | phytotoxicity rating CORN ([11]; 250 g ai/ha): 90 | phytotoxicity rating RICE ([12]; 63 g ai/ha): 60 | phytotoxicity rating RICE ([12]; 250 g ai/ha): 90 | Pre-emerge Herbicidal Activity, phytotoxicity rating (0-100), AMARE ([13]; 63 g ai/ha): 100 | Pre-emerge Herbicidal Activity, phytotoxicity rating (0-100), AMARE ([13]; 250 g ai/ha): 100 | Pre-emerge Herbicidal Activity, phytotoxicity rating (0-100), DIGSA ([14]; 63 g ai/ha): 90 | Pre-emerge Herbicidal Activity, phytotoxicity rating (0-100), DIGSA ([14]; 250 g ai/ha): 100 | Pre-emerge Herbicidal Activity, phytotoxicity rating (0-100), IPOHE ([15]; 63 g ai/ha): 90 | Pre-emerge Herbicidal Activity, phytotoxicity rating (0-100), IPOHE ([15]; 250 g ai/ha): 100 | Pre-emerge Herbicidal Activity, phytotoxicity rating (0-100), AMBEL ([16]; 63 g ai/ha): 80 | Pre-emerge Herbicidal Activity, phytotoxicity rating (0-100), AMBEL ([16]; 250 g ai/ha): 100 | Pre-emerge Herbicidal Activity, phytotoxicity rating (0-100), CASOB ([17]; 63 g ai/ha): 40 | Pre-emerge Herbicidal Activity, phytotoxicity rating (0-100), CASOB ([17]; 250 g ai/ha): 100 | Pre-emerge Herbicidal Activity, phytotoxicity rating (0-100), SETVI ([18]; 63 g ai/ha): 10 | Pre-emerge Herbicidal Activity, phytotoxicity rating (0-100), SETVI ([18]; 250 g ai/ha): 100 | Pre-emerge Herbicidal Activity, phytotoxicity rating (0-100), SORHA ([19]; 63 g ai/ha): 80 | Pre-emerge Herbicidal Activity, phytotoxicity rating (0-100), SORHA ([19]; 250 g ai/ha): 100 | Pre-emerge Herbicidal Activity, phytotoxicity rating (0-100), ABUTH ([20]; 63 g ai/ha): 100 | Pre-emerge Herbicidal Activity, phytotoxicity rating (0-100), ABUTH ([20]; 250 g ai/ha): 100 | Pre-emerge Herbicidal Activity, phytotoxicity rating (0-100), ECHCG ([21]; 63 g ai/ha): 85 | Pre-emerge Herbicidal Activity, phytotoxicity rating (0-100), ECHCG ([21]; 250 g ai/ha): 100 | Pre-emerge Herbicidal Activity, phytotoxicity rating (0-100), CHEAL ([22]; 63 g ai/ha): 100 | Pre-emerge Herbicidal Activity, phytotoxicity rating (0-100), CHEAL ([22]; 250 g ai/ha): 100 | Pre-emerge phytotoxicity rating (0-100), crop damage, CORN ([23]; 63 g ai/ha): 10 | Pre-emerge phytotoxicity rating (0-100), crop damage, CORN ([23]; 250 g ai/ha): 95 | Pre-emerge phytotoxicity rating (0-100), crop damage, RICE ([24]; 63 g ai/ha): 75 | Pre-emerge phytotoxicity rating (0-100), crop damage, RICE ([24]; 250 g ai/ha): 95

— patent US6355799B1, “Substituted benzene compounds, process for their preparation, and herbicidal and defoliant compositions containing them” (ISK Americas Incorporated, priority 1997, dated 2002)
